# In US8067582B2 (Bristol-Myers Squibb Company, priority 2007, dated 2011):
# pIC50: −log10 of the molar value. Like-named read-outs stand apart in the source and are kept apart here.
# Experiments:
# [1] = test system: immature castrated male rats; experiment: Immature Rat Prostate Weight (IRPW) Assay; type: in vivo, rat (Sprague-Dawley); conditions: for EC50 (increase in organ weight, VP and SV): dosing for 3 days
# androgen receptor (AR) = target: T1, androgen receptor (AR) (Homo sapiens, UniProt P10275); experiment: MDA-MB-453 Androgen Receptor Transactivation Assay (PSA-Luc reporter, 3 nM DHT); type: cell-based; conditions: MDA-MB-453 cells, antagonism in presence of 3 nM DHT, 48 hour incubation
# T1 sequence (P10275 1-920): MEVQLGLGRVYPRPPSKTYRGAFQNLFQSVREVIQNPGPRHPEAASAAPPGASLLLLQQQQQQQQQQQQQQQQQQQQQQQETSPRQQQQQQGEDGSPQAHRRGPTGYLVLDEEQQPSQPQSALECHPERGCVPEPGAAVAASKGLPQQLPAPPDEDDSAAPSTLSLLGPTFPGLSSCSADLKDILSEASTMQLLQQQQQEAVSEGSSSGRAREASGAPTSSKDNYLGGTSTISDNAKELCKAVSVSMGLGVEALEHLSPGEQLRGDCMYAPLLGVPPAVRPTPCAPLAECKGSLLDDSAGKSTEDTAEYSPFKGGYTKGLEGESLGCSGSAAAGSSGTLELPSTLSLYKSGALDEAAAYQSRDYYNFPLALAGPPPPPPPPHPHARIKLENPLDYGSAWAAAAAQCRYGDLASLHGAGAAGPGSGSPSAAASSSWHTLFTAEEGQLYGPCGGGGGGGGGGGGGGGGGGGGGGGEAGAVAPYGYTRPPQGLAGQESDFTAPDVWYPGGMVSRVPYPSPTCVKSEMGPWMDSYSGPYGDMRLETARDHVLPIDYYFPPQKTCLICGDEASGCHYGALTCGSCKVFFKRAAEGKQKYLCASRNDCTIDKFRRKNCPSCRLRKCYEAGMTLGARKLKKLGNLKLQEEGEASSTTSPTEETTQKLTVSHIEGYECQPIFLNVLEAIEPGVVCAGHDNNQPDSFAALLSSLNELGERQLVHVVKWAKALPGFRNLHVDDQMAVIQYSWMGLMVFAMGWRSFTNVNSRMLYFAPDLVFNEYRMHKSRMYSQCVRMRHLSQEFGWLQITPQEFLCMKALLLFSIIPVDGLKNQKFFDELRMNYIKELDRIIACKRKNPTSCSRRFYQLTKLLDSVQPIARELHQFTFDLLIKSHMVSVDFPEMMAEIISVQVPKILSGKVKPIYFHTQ
# Source text: Compounds can be tested in a cell based transactivation assay used to measure the antagonism of androgen receptor (AR) transcriptional activity. The transactivation assay provides a means of identifying antagonists that inhibit the effects of the native hormone dihydrotestosterone (DHT). […] The pGL3 PSA-Luc reporter plasmid is comprised of the cDNA for the firefly luciferase gene and the upstream promoter sequences containing the androgen response elements (AREs) of the prostate specific antigen (PSA). This plasmid functions as a reporter for the transcription-modulating activity of the AR. In order to detect antagonists, the transactivation assay is conducted in the presence of constant concentration of the natural AR hormone (DHT) to induce a defined reporter signal. Addition of increasing concentrations of the suspected antagonist will decrease the reporter signal (luciferase activity).
# MDA-MB-453 and 22 RV1 cells were maintained in DMEM (Cellgro, Cat. #10-014-CM) or RPMI 1640 (Gibco Cat. #11875-085) respectively and supplemented with 10% FBS (Invitrogen/GIBCO Life Science). Cells were bulk transfected in flasks with 1.3 ug/ml pGL3 PSA-Luc plasmid by using the Lipofectamine 2000 Reagent (Invitrogen, Cat. #11668-019) and serum-free Opti-MEM I media (Invitrogen, Cat #31985-070) according to the manufacturer's optimized conditions. Transfection was conducted at 37° C. with 5% CO2 for 16-18 hours. Following transfection, cells are washed, treated with trypsin, counted, and seeded in a 96-well plate at 30,000 cells per well in DMEM containing 10% Charcoal/Dextran Treated Fetal Bovine Serum (Gibco Cat. #11054-020) for MDA-MB-453 cells or RPMI 1640 (Gibco Cat. #110835) containing 10% FBS (Invitrogen/GIBCO Life Science) for 22 RV1 cells.
# Following transfection, cells were incubated in the absence (blank) or presence (control) of 3 nM DHT (Sigma, Cat. #A-8380) and in the presence or absence of the standard antiandrogen bicalutamide or test compounds ranging in concentrations from 10^−10 to 10^−5M. Duplicates were used for each sample. The compound dilutions were performed by the Tecan Genesis (Tecan, Triangle Park, N.C.). After a 48 hour incubation, luciferase activity was measured using the Steady-Glo Luciferase Assay System (Promega, Cat. #E2550) according to manufacturer's specifications and luminescence was measured on a Packard TopCount (PerkinElmer). For each luciferase sample reading, the percent control (in absence of compounds) was calculated as: % Control=100×[averagesample−averageblank]/[averagecontrol−averageblank] Data was plotted and the IC50 value was defined as the concentration of compound that inhibited 50% of the luciferase activity for the controls.
# Compounds described herein were tested in the AR transactivation assay described immediately above, using MDA-MB-453 cells.
# [2] = Rattus norvegicus, po, 96 h, read-out: IRPW SV/FB (% control)
compound,measurement,setting,value
"C[C@]12O[C@@]3(CCO[C@H]4[C@@H]3[C@@H]1C(=O)N4c1ccc(C#N)c(C(F)(F)F)c1)C[C@H]2O (single isomer, unassigned) [Example 1]",response vs control in vivo at 5 mg/kg,[1]; [2],54%
same,pIC50,androgen receptor (AR),6.75
"C[C@@]12C[C@H](O)[C@]3(CCO[C@H]4[C@@H]3[C@@H]1C(=O)N4c1ccc(C#N)c(C(F)(F)F)c1)O2 (single isomer, unassigned) [Example 3]",response vs control in vivo at 3 mg/kg,[1]; [2],41%
same,pIC50,androgen receptor (AR),6.76
"C[C@@]12C[C@@H](O)[C@]3(CCO[C@H]4[C@@H]3[C@@H]1C(=O)N4c1ccc(C#N)c(C(F)(F)F)c1)O2 [Example 6, 4-((1R,2R,4R,5S,8S,12R)-2-hydroxy-4-methyl-6-oxo-9,13-dioxa-7-azatetracyclo[6.3.1.1^1,4.0^5,12]tridec-7-yl)-2-(trifluoromethyl)benzonitrile]",response vs control in vivo at 3 mg/kg,[1]; [2],37%
same,pIC50,androgen receptor (AR),6.55
"COC(=O)N[C@@H]1C[C@]23CCO[C@@H]4[C@H]2[C@@H](C(=O)N4c2ccc(C#N)c(C(F)(F)F)c2)[C@@]1(C)O3 [Example 14, Methyl ((1S,3R,4R,5R,8R,12S)-7-(4-cyano-3-(trifluoromethyl)phenyl)-4-methyl-6-oxo-9,13-dioxa-7-azatetracyclo[6.3.1.1^1,4.0^5,12]tridec-3-yl)carbamate]",response vs control in vivo at 3 mg/kg,[1]; [2],35%
same,pIC50,androgen receptor (AR),6.73
"CO/N=C1\C[C@@]2(C)O[C@@]13CCO[C@H]1[C@@H]3[C@@H]2C(=O)N1c1ccc(C#N)c(C(F)(F)F)c1 [Example 30, 4-((1R,2E,4R,5S,8S,12R)-2-(methoxyimino)-4-methyl-6-oxo-9,13-dioxa-7-azatetracyclo[6.3.1.1^1,4.0^5,12]tridec-7-yl)-2-(trifluoromethyl)benzonitrile]",response vs control in vivo at 3 mg/kg,[1]; [2],37%
same,pIC50,androgen receptor (AR),7.51
"C[C@@]12CC[C@]3(CCO[C@H]4[C@@H]3[C@@H]1C(=O)N4c1ccc(C#N)c(C(F)(F)F)c1)O2 [Example 50, 4-((1R,4R,5S,8S,12R)-4-methyl-6-oxo-9,13-dioxa-7-azatetracyclo[6.3.1.1^1,4.0^5,12]tridec-7-yl)-2-(trifluoromethyl)benzonitrile]",response vs control in vivo at 3 mg/kg,[1]; [2],46%
same,pIC50,androgen receptor (AR),7.38
"C[C@]12O[C@@]3(CCO[C@H]4[C@@H]3[C@@H]1C(=O)N4c1ccc(Cl)c(F)c1)C[C@H]2O [Example 138, (1S,3R,4S,5S,8S,12R)-7-(4-chloro-3-fluorophenyl)-3-hydroxy-4-methyl-9,13-dioxa-7-azatetracyclo[6.3.1.1^1,4.0^5,12]tridecan-6-one]",pIC50,androgen receptor (AR); read-out: IC50,5.22
"Cc1c(N2C(=O)[C@H]3[C@H]4[C@@H]2OCC[C@]42C[C@@H](O)[C@@]3(C)O2)ccc(C#N)c1C(F)(F)F [Example 142, 4-((1S,3R,4S,5S,8S,12R)-3-hydroxy-4-methyl-6-oxo-9,13-dioxa-7-azatetracyclo[6.3.1.1^1,4.0^5,12]tridec-7-yl)-3-methyl-2-(trifluoromethyl)benzonitrile]",pIC50,androgen receptor (AR),6.02
"C#Cc1cc(N2C(=O)[C@H]3[C@H]4[C@@H]2OCC[C@]42C[C@@H](O)[C@@]3(C)O2)ccc1Cl [Example 145, (1S,3R,4S,5S,8S,12R)-7-(4-chloro-3-ethynylphenyl)-3-hydroxy-4-methyl-9,13-dioxa-7-azatetracyclo[6.3.1.1^1,4.0^5,12]tridecan-6-one]",pIC50,androgen receptor (AR); read-out: IC50,5.76
"C[C@]12O[C@@]3(CCO[C@H]4[C@@H]3[C@@H]1C(=O)N4c1cc(Cl)cc(Cl)c1)C[C@H]2O [Example 149, (1S,3R,4S,5S,8S,12R)-7-(3,5-dichlorophenyl)-3-hydroxy-4-methyl-9,13-dioxa-7-azatetracyclo[6.3.1.1^1,4.0^5,12]tridecan-6-one]",pIC50,androgen receptor (AR); read-out: IC50,5.96
"C[C@@]12C[C@H](NC(=O)OCCO)[C@]3(CCO[C@H]4[C@@H]3[C@@H]1C(=O)N4c1ccc(C#N)c(C(F)(F)F)c1)O2 [Example 162, 2-Hydroxyethyl ((1R,2S,4R,5S,8S,12R)-7-(4-cyano-3-(trifluoromethyl)phenyl)-4-methyl-6-oxo-9,13-dioxa-7-azatetracyclo[6.3.1.1^1,4.0^5,12]tridec-2-yl)carbamate]",pIC50,androgen receptor (AR),5.71
"CCS(=O)(=O)N[C@H]1C[C@@]2(C)O[C@@]13CCO[C@H]1[C@@H]3[C@@H]2C(=O)N1c1ccc(C#N)c(C(F)(F)F)c1F [Example 190, N-((1R,2S,4R,5S,8S,12R)-7-(4-Cyano-2-fluoro-3-(trifluoromethyl)phenyl)-4-methyl-6-oxo-9,13-dioxa-7-azatetracyclo[6.3.1.1^1,4.0^5,12]tridec-2-yl)ethanesulfonamide]",pIC50,androgen receptor (AR),5.64
"C[C@@]12C[C@@H](NS(=O)(=O)C3CC3)[C@]3(CCO[C@H]4[C@@H]3[C@@H]1C(=O)N4c1ccc(C#N)c(C(F)(F)F)c1)O2 [Example 196, N-((1R,2R,4R,5S,8S,12R)-7-(4-Cyano-3-(trifluoromethyl)phenyl)-4-methyl-6-oxo-9,13-dioxa-7-azatetracyclo[6.3.1.1^1,4.0^5,12]tridec-2-yl)cyclopropanesulfonamide]",pIC50,androgen receptor (AR),7.34
"CCC(=O)N[C@H]1C[C@@]2(C)O[C@@]13CCO[C@H]1[C@@H]3[C@@H]2C(=O)N1c1ccc(C#N)c(Cl)c1 [Example 214, N-((1R,2S,4R,5S,8S,12R)-7-(3-chloro-4-cyanophenyl)-4-methyl-6-oxo-9,13-dioxa-7-azatetracyclo[6.3.1.1^1,4.0^5,12]tridec-2-yl)propanamide]",pIC50,androgen receptor (AR),5.25
"CCS(=O)(=O)N[C@H]1C[C@@]23CCO[C@H]4[C@@H]2[C@H](C(=O)N4c2ccc(C#N)c(C(F)(F)F)c2)[C@]1(C)O3 [Example 222, N-((1R,3S,4S,5S,8S,12R)-7-(4-cyano-3-(trifluoromethyl)phenyl)-4-methyl-6-oxo-9,13-dioxa-7-azatetracyclo[6.3.1.1^1,4.0^5,12]tridec-3-yl)ethanesulfonamide]",pIC50,androgen receptor (AR),7.24
"C[C@]12C[C@@H](O)[C@@]3(CCO[C@@H]4[C@H]3[C@H]1C(=O)N4c1ccc(C#N)c(Br)c1)O2 [Example 240, 2-Bromo-4-((1S,2R,4S,5R,8R,12S)-2-hydroxy-4-methyl-6-oxo-9,13-dioxa-7-azatetracyclo[6.3.1.1^1,4.0^5,12]tridec-7-yl)benzonitrile]",pIC50,androgen receptor (AR); read-out: IC50,5.20
"C[C@]12CC[C@H]3[C@@H](CCC4=CC(=O)CC[C@@]43C)[C@@H]1CC[C@@H]2O [T, testosterone, reference compound]","EC50 (increase in organ weight, VP and SV)",[1]; immature castrated rats,about 1 mg
"CCC(=O)O[C@H]1CC[C@H]2[C@@H]3CCC4=CC(=O)CC[C@]4(C)[C@H]3CC[C@]12C [TP, Testosterone Propionate, reference compound]",potency relative to free T,"[1]; TP versus free T, immature castrated rats",10-30 fold
same,"EC50 (increase in organ weight, VP and SV)",[1]; immature castrated rats,~0.03 mg
